This is an account of results in ChEMBL document CHEMBL4842357, “Discovery of Novel Apigenin-Piperazine Hybrids as Potent and Selective Poly (ADP-Ribose) Polymerase-1 (PARP-1) Inhibitors for the Treatment of Cancer” (J Med Chem, 2021).

Calls of active or inactive are those of the source. The rule behind the calls is not given here.

Series [1] deals with T1, Poly [ADP-ribose] polymerase 1 (Homo sapiens, UniProt P09874). Briefly: Inhibition of PARP-1 in human SK-OV-3 cells assessed as decrease in MCM2 protein expression level at 0.1 to 10 uM by Western blot analysis. It counts as cell-based. The conditions noted are these: dose 0.1-10 µM. A general note: Immunoblotting shows a protein as a band on a membrane.
Series [2] has as its system SK-OV-3. Briefly: Antitumor activity against human SK-OV-3 cells xenografted in BALB/c nude mouse assessed as decrease in PAR level at 25 to 50 mg/kg, po measured after 28 days by Western blot analysis. It counts as functional, organism-based. To be noted: dose 25-50 mg/kg, time 28.0 day. A general note: A xenograft is tissue or cells of one species grown in another, often human tumour cells in immunodeficient mice.

In series [3] the test system is SK-OV-3. Briefly: Antitumor activity against human SK-OV-3 cells xenografted in BALB/c nude mouse assessed as increase in gamma-H2AX expression in tumor at 25 to 50 mg/kg, po measured after 28 days by Western blot analysis. It counts as functional, organism-based. To be noted: dose 25-50 mg/kg, time 28.0 day.
For a further series, the species on record is Homo sapiens. Kind of series: Selectivity index, ratio of IC50 for inhibition of recombinant human full-length PARP-2 to IC50 for inhibition of recombinant human full-length PARP-1.
In series [4] the test system is A549. Kind of series: Cytotoxicity against human A549 cells assessed as induction of CBP cytotoxicity incubated for 48 hrs in presence of CBP by MTT assay. It counts as functional, cell-based. To be noted: dose 0.1-10 µM. For orientation: Tetrazolium assays rely on reduction of a dye to a coloured formazan, in cell work by metabolically active cells.
The test system of series [5] is A549. Kind of series: Cytotoxicity against human A549 cells assessed as reduction in cell viability at 0.1 to 10 uM incubated for 48 hrs by MTT assay. It counts as functional, cell-based. The conditions noted are these: dose 0.1-10 µM.
Series [6] relates to SK-OV-3. Briefly: Cytotoxicity against human BRCA-1 deficient SK-OV-3 cells assessed as reduction in cell viability at 0.1 to 10 uM incubated for 48 hrs by MTT assay. It counts as functional, cell-based. To be noted: dose 0.1-10 µM.
The target in series [7] is T1, Poly [ADP-ribose] polymerase 1. Briefly: Binding affinity to PARP-1 in human SK-OV-3 cells assessed as increase in thermal stabilization of PARP-1 at 1 uM after 3 hrs by CETSA. It counts as cell-based.
The target in series [8] is T2, Poly [ADP-ribose] polymerase 2 (Homo sapiens, UniProt Q9UGN5). Kind of series: Binding affinity to PARP-2 in human SK-OV-3 cells assessed as increase in thermal stabilization of PARP-2 at 1 uM after 3 hrs by CETSA. It counts as cell-based.
Series [9] addresses T1, Poly [ADP-ribose] polymerase 1. Kind of series: Binding affinity to PARP-1 in human SK-OV-3 cells assessed as thermal stabilization after 3 hrs by ITDRF-CETSA. To be noted: dose 0.1-10 µM. It counts as cell-based.
The target in series [10] is T2, Poly [ADP-ribose] polymerase 2. Briefly: Binding affinity to PARP-2 in human SK-OV-3 cells assessed as thermal stabilization after 3 hrs by ITDRF-CETSA. It counts as cell-based. To be noted: dose 0.1-10 µM.
In series [11] the test system is A549. Kind of series: Cytotoxicity against human A549 cells transfected with PARP-1 siRNA assessed as sensitization of CBP at 0.1 to 10 uM incubated for 48 hrs in presence of CBP by MTT assay. It counts as functional, cell-based. The conditions noted are these: dose 0.1-10 µM.
The subject of series [12] is SK-OV-3. Kind of series: Cytotoxicity against human SK-OV-3 cells transfected with PARP-1 siRNA assessed as reduction in cell viability at 0.1 to 10 uM after 48 hrs by MTT assay. It counts as functional, cell-based. To be noted: dose 0.1-10 µM.
Series [13] concerns the target T1, Poly [ADP-ribose] polymerase 1. Briefly: Inhibition of PARP-1 in human SK-OV-3 cells assessed as decrease in MCM3 protein expression level at 0.1 to 10 uM by Western blot analysis. To be noted: dose 0.1-10 µM. It counts as cell-based.
Series [14] has the same target. Briefly: Inhibition of PARP-1 in human SK-OV-3 cells assessed as decrease in MCM4 protein expression level at 0.1 to 10 uM by Western blot analysis. It counts as cell-based. To be noted: dose 0.1-10 µM.
The target is the same in series [15]. Briefly: Inhibition of PARP-1 in human SK-OV-3 cells assessed as decrease in MCM5 protein expression level at 0.1 to 10 uM by Western blot analysis. To be noted: dose 0.1-10 µM. It counts as cell-based.
For series [16] the target is unchanged. Kind of series: Inhibition of PARP-1 in human SK-OV-3 cells assessed as decrease in MCM6 protein expression level at 0.1 to 10 uM by Western blot analysis. It counts as cell-based. To be noted: dose 0.1-10 µM.
For series [17] the target is unchanged. Briefly: Inhibition of PARP-1 in human SK-OV-3 cells assessed as decrease in MCM7 protein expression level at 0.1 to 10 uM by Western blot analysis. It counts as cell-based. The conditions noted are these: dose 0.1-10 µM.
Series [18] has the same target. Briefly: Inhibition of PARP-1 in human SK-OV-3 cells assessed as induction of DNA damage by measuring increase in gamma H2AX expression by immunofluorescence assay. It counts as cell-based.
Series [19] shares this target. Briefly: Inhibition of PARP-1 in human SK-OV-3 cells assessed as induction of DNA damage by measuring increase in gamma H2AX expression at 0.1 to 10 uM by Western blot analysis. It counts as cell-based. The conditions noted are these: dose 0.1-10 µM.
For series [20] the target is unchanged. Kind of series: Inhibition of PARP-1 in human SK-OV-3 cells assessed as decrease in H2O2-induced PAR level preincubated for 4 hrs followed by H2O2 addition by DAPI staining based inverted fluorescence microscopic analysis. It counts as cell-based.
For series [21] the target is unchanged. Kind of series: Inhibition of PARP-1 in human SK-OV-3 cells assessed as decrease in H2O2-induced PAR level at 0.1 to 10 uM preincubated for 4 hrs followed by H2O2 addition by Western blot analysis. It counts as cell-based. The conditions noted are these: dose 0.1-10 µM.
Series [22] deals with A549. Briefly: Antitumor activity against human A549 cells xenografted in BALB/c nude mouse assessed as induction of CBP mediated tumor growth inhibition at 50 mg/kg, po administered once daily for 12 days in presence of CBP. It counts as functional, organism-based. The conditions noted are these: time 12.0 day.
Series [23] deals with A549. Briefly: Antitumor activity against human A549 cells xenografted in BALB/c nude mouse assessed as tumor growth inhibition at 50 mg/kg, po administered once daily for 12 days. It counts as functional, organism-based. To be noted: time 12.0 day.
The subject of series [24] is SK-OV-3. Kind of series: Antitumor activity against human SK-OV-3 cells xenografted in BALB/c nude mouse assessed as decrease in tumor volume at 50 mg/kg, po administered once daily measured for 28 days. It counts as functional, organism-based. To be noted: time 28.0 day.
Series [25] relates to SK-OV-3. Briefly: Antitumor activity against human SK-OV-3 cells xenografted in BALB/c nude mouse assessed as decrease in PAR level at 25 to 50 mg/kg, po measured after 28 days by immunohistochemistry analysis. It counts as functional, organism-based. The conditions noted are these: dose 25-50 mg/kg, time 28.0 day.
The test system of series [26] is SK-OV-3. Kind of series: Antitumor activity against human SK-OV-3 cells xenografted in BALB/c nude mouse assessed as increase in gamma-H2AX expression in tumor at 25 to 50 mg/kg, po measured after 28 days by immunohistochemistry analysis. It counts as functional, organism-based. To be noted: dose 25-50 mg/kg, time 28.0 day.
In series [27] the target is T1, Poly [ADP-ribose] polymerase 1. Kind of series: Inhibition of recombinant human full-length PARP-1 using biotinylated substrate.
Series [28] concerns the target T2, Poly [ADP-ribose] polymerase 2. Kind of series: Inhibition of recombinant human full-length PARP-2 using biotinylated substrate.
Series [29] is described as follows: Acute toxicity in ICR mouse assessed as change in body weight at 1000 mg/kg, po administered only once at day 1 and measured every two days for 14 days. It counts as organism-based. To be noted: in vivo, 336 h, time 14 day.
A short description of series [30]: Acute toxicity in ICR mouse assessed as change in blood routine at 1000 mg/kg, po administered only once at day 1 and measured every two days for 14 days. It counts as organism-based. The conditions noted are these: in vivo, 336 h, time 14 day.
The nature of series [31]: Acute toxicity in ICR mouse assessed as effect on spleen at 1000 mg/kg, po administered only once at day 1 and measured every two days for 14 days. It counts as organism-based. The conditions noted are these: in vivo, 336 h, time 14 day.
A short description of series [32]: Acute toxicity in ICR mouse assessed as effect on kidney at 1000 mg/kg, po administered only once at day 1 and measured every two days for 14 days. It counts as organism-based. The conditions noted are these: in vivo, 336 h, time 14 day.
Series [33] is described as follows: Hepatotoxicity in ICR mouse assessed as effect on ALT level at 1000 mg/kg, po administered only once at day 1 and measured every two days for 14 days (reference value: 28.6 +/- 6.9 U/L). The conditions noted are these: in vivo, 336 h, time 14 day. It counts as toxicity, organism-based.
Series [34] is described as follows: Hepatotoxicity in ICR mouse assessed as effect on AST level at 1000 mg/kg, po administered only once at day 1 and measured every two days for 14 days (reference value: 61.5 +/- 3.7 U/L). It counts as toxicity, organism-based. The conditions noted are these: in vivo, 336 h, time 14 day.
Series [35] is described as follows: Renal toxicity in ICR mouse assessed as effect on BUN level at 1000 mg/kg, po administered only once at day 1 and measured every two days for 14 days (reference value: 8.9 +/- 0.9 mmol/L). To be noted: in vivo, 336 h, time 14 day. It counts as organism-based.

T2 sequence (Q9UGN5 whole entry): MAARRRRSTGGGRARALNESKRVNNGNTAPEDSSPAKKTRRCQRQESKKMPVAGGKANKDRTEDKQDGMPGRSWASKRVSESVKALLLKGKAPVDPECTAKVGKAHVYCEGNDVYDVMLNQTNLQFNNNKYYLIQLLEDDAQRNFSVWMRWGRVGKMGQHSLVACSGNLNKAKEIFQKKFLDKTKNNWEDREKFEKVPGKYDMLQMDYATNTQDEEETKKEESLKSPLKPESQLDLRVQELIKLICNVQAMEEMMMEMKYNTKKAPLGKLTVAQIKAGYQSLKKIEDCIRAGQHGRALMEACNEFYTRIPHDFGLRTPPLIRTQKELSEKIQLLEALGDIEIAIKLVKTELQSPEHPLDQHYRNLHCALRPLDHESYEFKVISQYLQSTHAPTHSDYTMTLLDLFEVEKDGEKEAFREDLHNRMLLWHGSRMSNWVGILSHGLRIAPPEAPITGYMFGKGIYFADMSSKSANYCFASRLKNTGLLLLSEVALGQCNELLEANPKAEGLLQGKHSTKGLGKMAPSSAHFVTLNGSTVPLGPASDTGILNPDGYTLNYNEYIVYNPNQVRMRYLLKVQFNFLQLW
T1 sequence (P09874 whole entry): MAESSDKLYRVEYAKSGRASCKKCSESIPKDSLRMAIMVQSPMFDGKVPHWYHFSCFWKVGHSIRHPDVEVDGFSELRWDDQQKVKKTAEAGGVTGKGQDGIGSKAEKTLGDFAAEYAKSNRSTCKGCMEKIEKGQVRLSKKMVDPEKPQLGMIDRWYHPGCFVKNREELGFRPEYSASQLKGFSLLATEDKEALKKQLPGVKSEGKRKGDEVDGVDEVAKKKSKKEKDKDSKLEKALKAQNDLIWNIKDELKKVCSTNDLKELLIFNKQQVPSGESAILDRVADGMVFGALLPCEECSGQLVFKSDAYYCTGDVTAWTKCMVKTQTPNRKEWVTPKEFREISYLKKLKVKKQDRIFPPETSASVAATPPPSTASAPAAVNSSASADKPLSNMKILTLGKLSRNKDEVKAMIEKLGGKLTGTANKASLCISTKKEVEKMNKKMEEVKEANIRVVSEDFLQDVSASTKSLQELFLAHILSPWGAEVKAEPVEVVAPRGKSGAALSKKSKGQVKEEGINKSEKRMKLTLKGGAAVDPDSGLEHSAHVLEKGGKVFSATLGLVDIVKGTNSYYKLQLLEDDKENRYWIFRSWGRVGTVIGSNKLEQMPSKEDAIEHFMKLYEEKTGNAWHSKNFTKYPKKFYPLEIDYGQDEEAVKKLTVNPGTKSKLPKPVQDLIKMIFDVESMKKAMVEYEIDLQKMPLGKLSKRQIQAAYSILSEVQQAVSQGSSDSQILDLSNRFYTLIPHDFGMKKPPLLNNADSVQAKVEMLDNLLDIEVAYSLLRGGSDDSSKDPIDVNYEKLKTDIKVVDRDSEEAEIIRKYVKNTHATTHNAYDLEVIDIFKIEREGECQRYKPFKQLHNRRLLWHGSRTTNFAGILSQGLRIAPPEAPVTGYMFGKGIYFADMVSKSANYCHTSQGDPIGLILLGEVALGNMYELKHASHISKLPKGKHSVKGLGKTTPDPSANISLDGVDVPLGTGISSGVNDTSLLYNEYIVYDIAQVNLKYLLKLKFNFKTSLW

On to `O=c1cc(-c2ccc(O)cc2)oc2c(CN3CCN(Cc4cccs4)CC3)c(O)cc(O)c12`, for which the inhibition result in series [1], in [13], in series [14], in [15], in series [16] and in [17] was “Active” throughout. Moreover, the inhibition result in series [18], in series [19], in series [20] and in series [21] was “Active” in each case. Also, the outcome (in the series with SK-OV-3 [2]; with SK-OV-3 [3]; with SK-OV-3 [6]; in series [7]; in [8]; with A549 [22]) was Active. Moreover, the outcome in the series on SK-OV-3 [24], in the series with SK-OV-3 [25] and in the series with SK-OV-3 [26] was Active. Also, in the series filed under Homo sapiens, the Ratio IC50 was 61.2. The Activity result (in the series with A549 [4]; in [9]; in [10]) was “Dose-Dependent Effect” in each case. Besides, the outcome with A549 [5], in the series with A549 [11], with SK-OV-3 [12] and with A549 [23] was inactive.

The IC50 is the concentration needed to halve the response being measured. With `O=C(c1cccs1)N1CCN(Cc2c(O)cc(O)c3c(=O)cc(-c4ccc(O)cc4)oc23)CC1`, the IC50 in series [27] amounted to 0.0158 µM; in series [28], 1.1 µM. The Ratio IC50 in the series filed under Homo sapiens is 69.6. Also, the Activity result with A549 [4] was “Dose-Dependent Effect”; in series [29] it was “Non-Toxic”; in series [30], “Non-Toxic”; in series [31] it was “Toxic”; in series [32], “Toxic”; in series [33] it was 29.6 U/L. Also, the results for the Activity in series [34] and in series [35] were 77.6 U/L and 10.3 mmol/L, respectively. For the same molecule, the result in the series with A549 [5] was inactive. Moreover, the outcome in the series with SK-OV-3 [6] was Active.

On to `O=C(c1ccco1)N1CCN(Cc2c(O)cc(O)c3c(=O)cc(-c4ccc(O)cc4)oc23)CC1`, for which the results for the IC50 in [27] and in series [28] were 0.0137 µM and 0.8 µM, respectively. Moreover, the Ratio IC50 in the series filed under Homo sapiens was determined as 68.3. Further, the Activity result in the series on A549 [4] was “Dose-Dependent Effect”; in series [29] it was “Non-Toxic”; in series [30], “Non-Toxic”; in series [31] it was “Toxic”; in series [32] it was “Toxic”; in series [33], 31.2 U/L. Also, the Activity came out at 79.3 U/L in [34] and 9.1 mmol/L in series [35]. The outcome in the series on A549 [5] was inactive. Also, the outcome with SK-OV-3 [6] was Active.
